25 compounds from patent US10342766B2, “6-shogaol derivatives and activities thereof” (North Carolina Agricultural and Technical State University, priority 2017, dated 2019) can be followed below.

Data set [1] relates to Nrf2. Description: Nrf2 reporter activity by Tg(gstp1:GFP) fluorescence in transgenic zebrafish embryos. The format is in vivo. The conditions noted are these: 24-hour treatment from 1 dpf to 2 dpf; for Ratio/CTL, Tg(gstp1:GFP) fluorescence signal: 5 μM, olfactory epithelia, relative to vehicle (DMSO = 1.00). How it is done: Zebrafish AB transgenic strains Tg(gstp1:GFP) were maintained in a Pentair Aquatic Ecosystem (Apopka, Fla., United States of America) fish housing unit with 14 h light/10 h dark cycle (see Tsujita, T., Li, L., Nakajima, H., Iwamoto, N., Nakajima-Takagi, Y., Ohashi, K., Kawakami, K., Kumagai, Y., Freeman, B. A., Yamamoto, M., and Kobayashi, M. (2011) “Nitro-fatty acids and cyclopentenone prostaglandins share strategies to activate the Keap1-Nrf2 system: a study using green fluorescent protein transgenic zebrafish.” Genes Cells 16, 46-57). The fish embryos were maintained at 28.5° C. in 0.3× Danieau's solution (19.3 mM NaCl, 0.23 mM KCl, 0.13 mM MgSO4, 0.2 mM Ca(NO3)2, 1.7 mM HEPES, pH 7.0) containing 30 μg/ml phenylthiourea (PTU) to inhibit pigmentation. Tg(gstp1:GFP) cross with AB wild-type strain fluorescence embryos were used for the experiment. Zebrafish embryos were washed, dechorionated and anaesthetized before observations, and fluorescence imaging for analysis.
Transgenic zebrafish embryos at 1 day-post-fertilization (dpf) were dechorionated and placed in Petri dishes containing different chemicals diluted in 0.3× Danieau's solution containing PTU. The chemical stock was dissolved in DMSO at 5 mM concentration.
An Olympus MVX10 Fluorescence Macroscope (Olympus, Center Valley, Pa., United States of America) equipped with a Hamamatsu C9300-221 high-speed digital CCD camera (Hamamatsu City, Japan) was used for fluorescence microscopy. Tg(gstp1:GFP) fluorescent embryos were anaesthetized in tricaine and imaged at 2 dpf. MetaMorph Basic software (Olympus, Center Valley, Pa., United States of America) was used for image acquisition and analysis.
Quantification of Nrf2 Reporter Activity by Tg(gstp1:
GFP) Fluoresence in Zebrafish Model. The fluorescence intensity of the olfactory neural epithelia was quantitated using MetaMorph Basic software. In brief, GFP expression in the olfactory regions of Tg(gstp1:GFP) embryos treated with various chemicals was measured after 24-hour treatment from 1 dpf to 2 dpf. The GFP induction was detectable by fluorescence signal at the area of the olfactory epithelia in the anterior of the head region, the intensity was measured using an area of a circle of 60 pixel diameter of the fluorescence olfactory epithelia subtracted by a background non-fluorescence area next to the zebrafish embryo. Both the left and right olfactory epithelia were measured to give an average fluorescence value. The values are an average of measurements from at least 10 embryos.

A short description of data set [2]: Biotransformation in zebrafish embryos (cysteine conjugates, LC/MS). The settings on record: 5 μM in incubation medium, 8 hpf to 24 hpf. The data set is classed as in vivo. How it is done:
Fifty zebrafish embryos at the 8 hour-post-fertilization (hpf) stage were incubated at 28.5° C. in 0.3× Danieau's solution (19.3 mM NaCl, 0.23 mM KCl, 0.13 mM MgSO4, 0.2 mM Ca(NO3)2, 1.7 mM HEPES, pH 7.0) with or without 5 μM 18 and 25-27, respectively. At 24 hpf, embryos were dechorionated manually and the chorions were carefully removed one by one from the culture medium. The zebrafish embryos were harvested and kept at −80° C. till analyzed by LC/MS.
200 μL Sodium acetate buffer solution (pH 5.0) was added to 50 zebrafish embryos. Samples were homogenized for 90 s by an Omni Bead Ruptor Homogenizer (Kennesaw, Ga., United States of America). 10 μL 10% ascorbic acid and 300 μL sodium acetate buffer were added to the homogenates. The mixture was incubated in the presence of β-glucuronidase (250 U) and sulfatase (3 U) at 37° C. for 45 min, and then 600 μL MeOH with 1% acetic acid was added. The resulting mixture was vortexed for 30 s and then centrifuged at 17000 g for 10 min. The supernatant was removed and evaporated under a gentle stream of nitrogen. The residue was reconstituted in 150 μL 90% MeOH with 0.2% acetic acid (AA), and 10 μL was analyzed directly by LC/MS.
(§1) LC/MS analysis was carried out with a Thermo-Finnigan Spectra System, which consisted of an Accela high speed MS pump, an Accela refrigerated autosampler, and an LCQ Fleet ion trap mass detector (Thermo Electron, San Jose, Calif., United States of America) incorporated with an electrospray ionization (ESI) interface. A Gemini-NX C18 column (150 mm×4.6 mm i.d., 5 μm; Phenomenex, Torrance, Calif., United States of America) was used for separation at a flow rate of 0.3 mL/min. The column was eluted with 100% A (5% aqueous methanol with 0.2% formic acid) for 1 min, followed by linear increases in B (95% aqueous methanol with 0.2% formic acid) to 55% from 1 to 4 min, to 85% from 4 to 25 min, then to 100% B from 25 to 30 min, and then with 100% B from 30 to 35 min. The column was then re-equilibrated with 100% A for 5 min. The LC eluent was introduced into the ESI interface. The positive ion polarity mode was set for the ESI source with the voltage on the ESI interface maintained at approximately 4.6 kV. Nitrogen gas was used as the sheath gas and auxiliary gas. Optimized source parameters, including capillary temperature (260° C.), sheath gas flow rate (31 arbitrary units), auxiliary gas flow rate (16 units), tube lens (34 V), and capillary voltage 9 V, were tuned using authentic samples. The collision-induced dissociation (CID) was conducted with an isolation width 2 Da and normalized collision energy of 35 for MS^2. The mass range was measured from 100 to 800 m/z. Data acquisition was performed with Xcalibur version 2.0 (Thermo Electron, San Jose, Calif., United States of America).

Data set [3] is described as follows: Formation of cysteine conjugates in mice (urine, LC/MS). The data set is classed as in vivo, mouse. The settings on record: oral gavage 200 mg/kg, urine collected in 24 h. How it is done: as §1, with “Optimized source parameters, including capillary temperature (260° C.), sheath gas flow rate (31 arbitrary units), auxiliary gas flow rate (16 units), tube lens (34 V), and capillary voltage 9 V, were tuned using authentic samples. The collision-induced dissociation (CID) was conducted with an isolation width 2 Da and normalized collision energy of 35 for MS^2.” left out, “Data acquisition was performed with Xcalibur version 2.0 (Thermo Electron, San Jose, Calif., United States of America).” left out
Enzymatic deconjugation of mouse urine was performed as described previously with slight modifications. […] The resulting suspension was centrifuged at 17,000 g for 5 min, and 10 μL of supernatant was analyzed directly by LC/MS.

SMILES strings stand for the structures. “And” between values parts separate entries of the source, which are not always exact repeats. Equal entries are not always repeated.

Take `CCCCCC(CC(=O)CCc1ccc(O)c(OC)c1)OC` (centres unmarked) [Compound 10]: the “Ratio/CTL, Tg(gstp1:GFP) fluorescence signal” value in data set [1] amounted to 0.96 ± 0.24.
On to `CCCCC/C=C/C(=O)CCc1ccc(O)c(OC)c1` [Compound 1, [6]-shogaol, reference compound], for which the “Ratio/CTL, Tg(gstp1:GFP) fluorescence signal” value in data set [1] is 2.40 and 2.40 ± 0.54; in data set [1] (listed as 6S), 2.40.
For the compound `CCCCC/C=C/C(=O)/C=C/c1ccccc1C(F)(F)F` [Compound 24], the “Ratio/CTL, Tg(gstp1:GFP) fluorescence signal” value in data set [1] is 1.55 and 1.55 ± 0.67.
On the same count and under the same terms, the same measure for `CCCCCCCC(=O)/C=C/c1ccc(O)c(OC)c1` [Compound 19]: 3.29 and 3.29 ± 0.35; for `CCCCCC(CC(O)CCc1ccc(O)c(OC)c1)SC` (centres unmarked) [Compound 17]: 0.72 ± 0.14; for `CCCCCC(CC(=O)CCc1ccc(O)c(OC)c1)SCC(NC(C)=O)C(=O)O` (centres unmarked) [Compound 7]: 1.04 ± 0.05.
On the same count and under the same terms, in the case of `CCCCCCC[C@H](O)CC(=O)CCc1ccc(O)c(OC)c1` [Compound 12, reference compound] it was 1.65 and 1.65 ± 0.29.
For `CCCCCCCC(=O)CCc1ccc(O)c(O)c1` [Compound 25], the “Ratio/CTL, Tg(gstp1:GFP) fluorescence signal” value in data set [1] was 4.32 and 4.32 ± 0.50. Further, in data set [2], the “Cysteine conjugates found in zebrafish embryos” value was “conjugates 37 and 37b were exclusively identified”.
Consider `CCCCC[C@H](O)CC(=O)CCc1ccc(O)c(OC)c1` [Compound 11, [6]-gingerol, reference compound], for which, in data set [1], the “Ratio/CTL, Tg(gstp1:GFP) fluorescence signal” value was 1.87 and 1.87 ± 0.51.
On the same count and under the same terms, in the case of `CCCCC/C=C/C(=O)/C=C/c1cccc(C(F)(F)F)c1` [Compound 22] it was 1.28 and 1.28 ± 0.10; in that of `C[S+]([O-])CCCCN=C=S` (centres unmarked) [SFN, sulforaphane, reference compound], 2.03 and 2.03 ± 0.49.
Consider `CCCCCCCC(O)CCc1ccc(O)c(OC)c1` (centres unmarked) [Compound 14], for which, in data set [1], the “Ratio/CTL, Tg(gstp1:GFP) fluorescence signal” value is on record as 0.96 ± 0.21 and the “Nrf2 activation in Tg(gstp1:GFP) zebrafish embryos, in words” value is “no effect at all”.
For the compound `CCCCCC(CC(O)CCc1ccc(O)c(OC)c1)SCC(NC(C)=O)C(=O)O` (centres unmarked) [Compound 16], the “Ratio/CTL, Tg(gstp1:GFP) fluorescence signal” value in data set [1] came out at 0.78 ± 0.12.
On the same count and under the same terms, in the case of `CCCCCCCCC[C@H](O)CC(=O)CCc1ccc(O)c(OC)c1` [Compound 13, reference compound] it was 1.29 and 1.29 ± 0.40.
Take `CCCCCCCCC/C=C/C(=O)CCc1ccc(O)c(OC)c1` [Compound 3, reference compound]: the “Ratio/CTL, Tg(gstp1:GFP) fluorescence signal” value in data set [1] came to 1.53 ± 0.53; in data set [1] (listed as 10S), 1.53.
For `CCCCC/C=C/C(=O)/C=C/c1ccc(O)c(OC)c1` [Compound 18], in data set [1], the “Ratio/CTL, Tg(gstp1:GFP) fluorescence signal” value was 5.67 and 5.67 ± 0.59. The “Cysteine conjugates found in mouse urine” value in data set [3] is reported as “conjugate 35 was predominantly present”. Further, the “Cysteine conjugates found in zebrafish embryos” value in data set [2] is reported as “conjugate 35 was predominantly present”.
For the compound `CCCCC/C=C/C(=O)/C=C/c1cc(O)c(O)c(OC)c1` [Compound 20], the “Ratio/CTL, Tg(gstp1:GFP) fluorescence signal” value in data set [1] is 1.26 and 1.26 ± 0.14.
Still for that read-out and setting: the same measure for `CCCCCC(CC(=O)CCc1ccc(O)c(OC)c1)SC` (centres unmarked) [Compound 8]: 1.16 ± 0.47.
Still for that read-out and setting: the same measure for `CCCCCC=CC(O)CCc1ccc(O)c(OC)c1` (centres unmarked) [Compound 4]: 1.13 and 1.13 ± 0.21.
The same measure, in the same setting: in the case of `CCCCCCCC(=O)CCc1ccc(O)c(OC)c1` [Compound 5] it was 1.27 and 1.27 ± 0.29; in that of `CCCCCC(CC(=O)CCc1ccc(O)c(OC)c1)SCC(N)C(=O)O` (centres unmarked) [Compound 6], 1.06 ± 0.20.
Take `CCCCCCC/C=C/C(=O)CCc1ccc(O)c(OC)c1` [Compound 2, reference compound]: the “Ratio/CTL, Tg(gstp1:GFP) fluorescence signal” value in data set [1] was 1.67 ± 0.55; in data set [1] (listed as 8S) it was 1.67.
For `CCCCC/C=C/C(=O)/C=C/c1cccc(C(F)(F)F)c1F` [Compound 23], the “Ratio/CTL, Tg(gstp1:GFP) fluorescence signal” value in data set [1] is 1.63 and 1.63 ± 0.17.
Still for that read-out and setting: in the case of `CCCCCC(CC(O)CCc1ccc(O)c(OC)c1)SCC(N)C(=O)O` (centres unmarked) [Compound 15] it was 1.08 ± 0.65; in that of `CCCCC/C=C/C(=O)/C=C/c1cc(OC)c(O)c(C(F)(F)F)c1` [Compound 21], 2.18 and 2.18 ± 0.53.
